Results: paper PMC5553193 (Journal of the American Chemical Society, 2015)
Changes are numbered by the printed parent chain. Each block holds one molecule with its values, some of them ahead of it. Peptide text beside a SMILES is read from it. * marks the point of attachment. X1 = O=C(C=NOCCO[C@H]1O[C@H](CO)[C@@H](O)[C@H](O)[C@@H]1O)*

What was measured:
ConA [1] = biological target: T1, ConA (Canavalia ensiformis, UniProt P02866); conditions: read-out: KD with ConA; literature value; cited from earlier work
DC-SIGN [2] = biological target: T2, DC-SIGN (Homo sapiens, UniProt Q9NNX6); conditions: read-out: KD with DC-SIGN; literature value; cited from earlier work
T2 sequence (Q9NNX6 1-404): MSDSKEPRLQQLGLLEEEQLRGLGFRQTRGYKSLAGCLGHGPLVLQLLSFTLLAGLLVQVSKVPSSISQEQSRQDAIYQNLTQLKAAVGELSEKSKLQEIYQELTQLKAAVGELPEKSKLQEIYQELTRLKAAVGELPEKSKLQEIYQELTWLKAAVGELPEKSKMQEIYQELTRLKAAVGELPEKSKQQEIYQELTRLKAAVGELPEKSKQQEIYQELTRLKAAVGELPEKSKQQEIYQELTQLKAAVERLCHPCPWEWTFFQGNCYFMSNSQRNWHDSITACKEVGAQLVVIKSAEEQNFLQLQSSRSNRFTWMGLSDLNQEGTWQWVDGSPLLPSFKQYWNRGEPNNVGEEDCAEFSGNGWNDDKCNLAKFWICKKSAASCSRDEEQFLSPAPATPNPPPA

DC-SIGN [3] = biological target: T2, DC-SIGN; assay: ESI-MS binding assay with DC-SIGN
ConA [4] = biological target: T1, ConA; assay type: binding
PSA = biological target: T3, PSA (Pisum sativum, UniProt P02867); assay: ITC with PSA; assay type: binding
T3 sequence (P02867 31-211 limits assumed): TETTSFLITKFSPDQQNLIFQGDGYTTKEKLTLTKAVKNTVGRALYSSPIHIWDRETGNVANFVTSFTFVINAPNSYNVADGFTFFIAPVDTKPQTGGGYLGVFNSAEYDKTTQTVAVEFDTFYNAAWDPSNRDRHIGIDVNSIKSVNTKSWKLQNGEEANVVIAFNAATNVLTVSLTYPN
T3 sequence (P02867 218-269 limits assumed): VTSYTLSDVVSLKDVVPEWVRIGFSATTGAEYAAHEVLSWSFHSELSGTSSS

LcH = biological target: T4, LcH (Lens culinaris, UniProt P02870); assay: ITC with LcH; assay type: binding
T4 sequence (P02870 31-211 limits assumed): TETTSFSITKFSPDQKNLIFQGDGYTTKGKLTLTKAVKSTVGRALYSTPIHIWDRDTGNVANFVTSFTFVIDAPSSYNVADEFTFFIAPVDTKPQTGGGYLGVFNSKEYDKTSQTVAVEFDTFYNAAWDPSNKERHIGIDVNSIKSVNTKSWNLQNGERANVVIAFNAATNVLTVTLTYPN
T4 sequence (P02870 218-269 limits assumed): T3 sequence (P02867 218-269 limits assumed) with S7N, D8E, S11P, Y32F, L38H, S47G

Structure (SMILES): OC[C@H]1O[C@H](OC[C@H]2O[C@H](O)[C@@H](O)[C@@H](O[C@H]3O[C@H](CO)[C@@H](O)[C@H](O)[C@@H]3O)[C@@H]2O)[C@@H](O)[C@@H](O)[C@@H]1O [Man3, α-Man-(1→3)-[α-Man-(1→6)]-α-Man]
Kd (ConA [1]): 2600 nM
Kd (DC-SIGN [2]): 590 µM

enhanced affinity for DC-SIGN (DC-SIGN [3]): enhanced affinity
Structure (SMILES): NC(=O)[C@H](CC(=O)O)NC(=O)[C@H](Cc1ccc(O)cc1)NC(=O)[C@H](Cc1c[nH]c2ccccc12)NC(=O)C=NOCCO[C@H]1O[C@H](CO)[C@@H](O)[C@H](O)[C@@H]1O [L20]

Structure (SMILES): CC[C@H](C)[C@H](NC(=O)[C@H](CC(N)=O)NC(=O)[C@H](CC(=O)O)NC(=O)[C@H](Cc1ccccc1)NC(=O)[C@H](CC(C)C)NC(=O)[C@H](CC(=O)O)NC(=O)[C@H](Cc1ccc(O)cc1)NC(=O)[C@H](Cc1c[nH]c2ccccc12)NC(=O)C=NOCCO[C@H]1O[C@H](CO)[C@@H](O)[C@H](O)[C@@H]1O)C(=O)N[C@@H](CC(N)=O)C(=O)N[C@@H](CO)C(N)=O [L30, Man-WYDLFDNINS] (X1-WYDLFDNINS-NH2; N-terminus assumed)
fold enhancement in affinity (lower KD) over MeMan (ConA [4]): 33 fold

Structure (SMILES): CC(C)C[C@H](NC(=O)[C@H](CC(=O)O)NC(=O)[C@H](Cc1ccc(O)cc1)NC(=O)[C@H](Cc1c[nH]c2ccccc12)NC(=O)C=NOCCO[C@H]1O[C@H](CO)[C@@H](O)[C@H](O)[C@@H]1O)C(=O)N[C@@H](Cc1ccccc1)C(N)=O [L37, Man-WYDLF] (X1-WYDLF-NH2; N-terminus assumed)
fold enhancement of binding of monosaccharide moiety by peptide fragment (PSA): 2 fold
fold enhancement of binding of monosaccharide moiety by peptide fragment (ConA [4]; ITC): 35 fold
fold enhancement of binding of monosaccharide moiety by peptide fragment (LcH): 2 fold
